From patent publication US20210128528A1, “USE OF 5HT2A INVERSE AGONISTS FOR TREATING PSYCHOSIS” (Axovant Sciences GmbH, priority 2017, published 2021)

Columns and labels:
[1] = molecular target: T1, 5HT2A receptor (h5HT2A-Dx-U2OS cells) (Homo sapiens, UniProt P28223); assay: cell-based
T1 construct: beta-galactosidase enzyme fragment for complementation (the print says only EFC; from my own knowledge of PathHunter it is the ProLink tag on the receptor's C-terminus); host or cells: U2OS (h5HT2A-Dx-U2OS)
T1 sequence (P28223 whole entry, the tested form may be a part): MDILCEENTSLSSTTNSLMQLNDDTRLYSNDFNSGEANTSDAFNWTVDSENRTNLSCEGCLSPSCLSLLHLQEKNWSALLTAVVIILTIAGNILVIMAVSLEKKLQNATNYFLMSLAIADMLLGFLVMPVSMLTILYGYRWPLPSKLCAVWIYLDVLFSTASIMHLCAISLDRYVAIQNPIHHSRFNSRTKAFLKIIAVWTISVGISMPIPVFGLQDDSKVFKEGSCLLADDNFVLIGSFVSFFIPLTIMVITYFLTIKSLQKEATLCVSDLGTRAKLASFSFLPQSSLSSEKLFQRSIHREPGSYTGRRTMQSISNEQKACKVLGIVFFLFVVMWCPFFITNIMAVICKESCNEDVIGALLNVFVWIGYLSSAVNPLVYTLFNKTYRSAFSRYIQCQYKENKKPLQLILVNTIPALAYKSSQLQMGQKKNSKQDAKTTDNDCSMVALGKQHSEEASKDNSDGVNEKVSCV
Description: Cells were incubated with nelotanserin or clozapine for 90 minutes at 37° C. followed by addition of DiscoverX detection reagent for 60 minutes, after which luminescence was measured.
Drug treatment was performed for 90 minutes at 37 degrees Celsius followed by addition of DiscoverX detection reagent for 60 minutes at room temperature, after which luminescence was measured.
Cells were incubated with nelotanserin or clozapine for 90 minutes at 37° C. followed by addition of DiscoveRx detection reagent for 60 minutes, after which luminescence was measured.

C57Bl/6J male mice [2] = assay: DOI-induced head twitch response in mice; assay type: in vivo; conditions: Mus musculus
C57Bl/6J male mice [3] = assay: PCP-induced hyperlocomotion in open field activity monitors; assay type: in vivo; conditions: Mus musculus
Description: PCP-induced hyperlocomotion was measured in open field activity monitor chambers. […] All studies were performed in a blinded and randomized manner and potencies were calculated. Clozapine was used as the basis for comparison.
The data depicted in FIGS. 2-5, summarizes Mouse data—Male C57BL6J mice from JAX ˜12 weeks old. Studies were randomized and investigator was blinded. The figures contain three ways of analyzing the data obtained from the Versamax open field activity monitors on the same cohort of mice. The infrared beams in the chambers measure breaks in X, Y, and Z planes. Typically data are reported for Horizontal beam breaks and sometimes for distance travelled and stereotypy in studies involving PCP.
Male C57BL6 mice from JAX were used at 12-15 weeks of age, n=6 for all conditions). All mice were naïve at the time of testing. […] Mice were then treated with 0.9% saline (i.p.) or PCP (10 mg/kg, i.p.) and monitored for an additional 60 minutes. All measurements were recorded by VersaMax software, and experimenter was blinded to treatment. The summary figure is a compilation of distance travelled over the last 60 minutes with drug treatment. […] Data analyzed via two-way ANOVA followed by Sidak post hoc test to assess statistical differences between animals which received saline of PCP following nelotanserin, clozapine, or vehicle.
Male C57BL6 mice from JAX were used at 12-15 weeks of age, n=6 for all conditions). All mice were naïve at the time of testing. […] Mice were then treated with 0.9% saline (i.p.) or PCP (10 mg/kg, i.p.) and monitored for an additional 60 minutes. All measurements were recorded by VersaMax software, and experimenter was blinded to treatment. The summary figure is a compilation of the sum of beam breaks (X, Y plane) monitored over the last 60 minutes. […] Data analyzed via two-way ANOVA followed by Sidak post hoc test to assess statistical differences between animals which received saline of PCP following nelotanserin, clozapine, or vehicle.
Male C57BL6 mice from JAX were used at 12-15 weeks of age, n=6 for all conditions). All mice were naïve at the time of testing. […] Mice were then treated with 0.9% saline (i.p.) or PCP (10 mg/kg, i.p.) and monitored for an additional 60 minutes. All measurements were recorded by VersaMax software, and experimenter was blinded to treatment. The summary figure is a compilation of the sum of beam breaks (X, Y, Z stereotypy measures) monitored over the last 60 minutes. […] Data analyzed via two-way ANOVA followed by Sidak post hoc test to assess statistical differences between animals which received saline of PCP following nelotanserin, clozapine, or vehicle.

[4] = system: serotonin-induced intracellular calcium release; assay: serotonin-induced intracellular calcium release assay; assay type: cell-based; conditions: FIG. 6
5HT2C = molecular target: T2, 5HT2C (Homo sapiens, UniProt P28335); assay: selectivity of 5HT2A inverse agonist over 5HT2C; conditions: 5HT2A over 5HT2C
T2 sequence (P28335 33-458): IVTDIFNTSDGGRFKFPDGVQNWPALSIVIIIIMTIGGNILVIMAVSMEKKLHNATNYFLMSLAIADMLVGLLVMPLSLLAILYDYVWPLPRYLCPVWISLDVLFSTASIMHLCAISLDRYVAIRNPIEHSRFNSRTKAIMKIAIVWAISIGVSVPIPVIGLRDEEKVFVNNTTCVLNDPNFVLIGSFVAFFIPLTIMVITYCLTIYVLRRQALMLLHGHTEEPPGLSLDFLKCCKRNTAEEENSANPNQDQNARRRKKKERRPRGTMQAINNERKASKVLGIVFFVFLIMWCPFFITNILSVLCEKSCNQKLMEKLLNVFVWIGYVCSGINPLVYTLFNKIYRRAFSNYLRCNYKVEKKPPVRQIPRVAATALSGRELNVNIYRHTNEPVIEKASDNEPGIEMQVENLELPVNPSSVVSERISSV

[5] = system: panel of 66 receptors and ion channels; assay: panel of 66 receptors and ion channels
[6] = compound alone, βarrestin2 recruitment

| % Max of 5HT [1, 6] | EC50 [1] | Fold [1, 6] | IC50 ([1]; serotonin-induced, h5HT2A-Dx-U2OS cells, 90 minutes at 37° C., read-out: IC50 (SEM), antagonist of the recruitment of β-arrestin 2 to the 5HT2A receptor) | selectivity over 5HT2C (5HT2C) | activity in a panel of 66 receptors and ion channels [5] | Compound | ED50 (C57Bl/6J male mice [2]; read-out: ED50 (95% CL), block of DOI-induced head twitches) | ED50 (C57Bl/6J male mice [2]; read-out: ED 50 (95% confidence limits), DOI-induced head twitch of FIG. 5) | ED50 (C57Bl/6J male mice [3]; ip, 1 h, beam breaks X, Y, Z, nelotanserin 1-10 mg/kg i.p., PCP 10 mg/kg i.p., last 60 minutes, read-out: ED 50 (95% confidence limits), stereotypy counts of FIG. 4) | ED50 (C57Bl/6J male mice [3]; ip, 1 h, horizontal beam breaks (X, Y plane), nelotanserin 1-10 mg/kg i.p., PCP 10 mg/kg i.p., last 60 minutes, read-out: ED 50 (95% confidence limits), beam breaks data of FIG. 3) | ED50 (C57Bl/6J male mice [3]; ip, 1 h, nelotanserin 1-10 mg/kg i.p., PCP 10 mg/kg i.p., last 60 minutes, read-out: ED 50 (95% confidence limits), total distance traveled data of FIG. 2) | ED50 (C57Bl/6J male mice [3]; i.p., 30 minutes before PCP 10 mg/kg i.p., read-out: ED50 (95% CL), inhibition of PCP-induced hyperlocomotor activity) | serotonin-induced intracellular calcium release [4] | potency relative to pimavanserin or clozapine, intracellular calcium release ([4]; serotonin-induced) |
| --- | --- | --- | --- | --- | --- | --- | --- | --- | --- | --- | --- | --- | --- | --- |
| 98.20% | – | – | – | – | – | NCCc1c[nH]c2ccc(O)cc12 [Compound 5HT, serotonin, reference compound] | – | – | – | – | – | – | – | – |
| −2.21% | 3.74 nM | 0.90 Fold | 3.74 nM | 80 fold | inactive | COc1ccc(NC(=O)Nc2ccc(F)cc2F)cc1-c1c(Br)cnn1C [Nelotanserin, nelotanserin] | 2.4 mg/kg | 2.4 mg/kg | 3.8 mg/kg | 4.3 mg/kg | 3 mg/kg | 3 mg/kg | inhibited | about 2 fold |
